Measured values reported in patent US20060206946A1, “Method of disrupting heme transport in nematodes and of modelling and evaluating eukaryotic heme transport” (priority 2005, published 2006).

Experiments:
C. elegans [1] = assay: Metabolic labeling with 59Fe or 59Fe-heme, heme isolation and TLC; assay type: in vivo, Caenorhabditis elegans; settings: for radiolabel signal in heme extracted from labeled worms: 9.4×10^6 DPM, mCeHR
Protocol: (E) Metabolic labeling in C. elegans cultured in the presence of heme. Synchronized L1 larvae were grown in mCeHR medium containing either ^59Fe or ^59Fe-heme (9.4×10^6 DPM) and the worms harvested as gravid adults. Heme was extracted and concentrated, and then resolved by TLC followed by detection with a PhosphorImager (top panel). Lane 5, ^59Fe-heme control. Radiolabeled bands were quantified in a gamma counter and CPM normalized to total protein (bottom panel). To correct for non-specific binding of the radiolabeled Fe and heme, parallel experiments were conducted in the presence of 1 mM sodium azide (samples 1 and 3).
Preparation of hemin, hemin analogs and [^59Fe]Heme. Fresh stock solutions of hemin or hemin analogs (Frontier Sciences, Logan, Utah) were prepared immediately prior to use by dissolving required amounts in 0.3 M ammonium hydroxide. The pH of the stock solution was adjusted to pH 8.0 with 6 N HCl, and filter sterilized ([…]). The upper limit of free iron was estimated to be 3.8 nM/1 μM of hemin chloride by inductively coupled plasma-mass spectrometry (ICP-MS) analysis. For synthesis of ^59Fe-heme, 50 ml of glacial acetic acid was stirred under a constant flow of N2 at 60° C. followed by addition of 12 mg of protoporphyrin IX in pyridine for 30 min. To this mixture, 0.85 μCi of FeCl3 (specific activity 35.77 mCi/mg, Perkin Elmer, Boston, Mass.) was stirred in for an additional 3 h. Heme was extracted from this mixture with ethyl acetate followed by extensive washes with 4 N HCl and distilled water to remove unincorporated protoporphyrin IX and iron. The heme thus obtained was concentrated by evaporation of the ethyl acetate using a RotaVapor and frozen at −20° C. until further use. Total amount of ^59Fe-heme synthesized by this method was measured using a Packard Gamma Counter (˜21% efficiency). The purity of heme was determined by thin layer chromatography using silica gel 60 matrix in an NH4OH-saturated chamber with 2,6-lutidine/water solvent. We estimated the specific activity of ^59Fe-heme synthesized to be ˜2.8×10^6 DPM/nmol.
Metabolic Labeling, Heme Isolation and Thin Layer Chromatography. Equal numbers of L1 worms were grown at 20° C. in mCeHR medium with 20 μM hemin and supplemented with 9.4×10^6 DPM of either ^59Fe-heme or ^59FeCl3. Radiolabeled adult worms were harvested by first incubating them in M9 buffer for 30 min to empty the gut contents. […] It was experimentally determined that this concentration of NaN3 was not lethal to worms. […] Plates were exposed to a PhosphorImager and the radiolabel signal corresponding to heme was excised and analyzed using a gamma counter. Counts (DPM) obtained were normalized for protein as determined by the bicinchoninic acid method (Sigma) performed on pre-aliquoted samples of intact worms. […]

C. elegans [2] = assay type: in vivo, Caenorhabditis elegans; settings: in vivo
Protocol: (C) Fluorescent metabolic labeling of worms with either 40 μM hemin (images 1, 4) or 40 μM ZnMP/4 μM hemin (images 2, 3, 5, 6) for 3 h followed by confocal microscopy with a 546 laser (images 1-3) and DIC optics (images 4-6). Arrowheads indicate ZnMP fluorescence accumulation within intestinal cells and developing embryos. For clarity, the boxed image in 2 is magnified in images 3 and 6. (Bar=100 μm).
(D) Worms were incubated with 40 μM ZnMP/4 μM hemin for 16 h followed by a chase with 40 μM hemin. Worms were analyzed by epifluorescence microscopy (TRITC channel) and DIC optics. Experiments were performed either in the absence (images 1-4) or presence (images 5-8) of NaN3 during the chase periods to test for the non-specific loss of ZnMP fluorescence. Photomicrograph 4 is shown at a lower power to depict the complete loss of ZnMP fluorescence. (Bar=100 μm). For (C) and (D), four separate experiments were performed with a minimum of 50 worms per data point per experiment. The data are representative for >90% of worms analyzed.
Because of the nature of the growth curve, we reasoned that heme homeostatis in C. elegans may be regulated in accordance with organismic needs and metabolic demands. […]
Pulse-Chase Analysis. […] At timed intervals, aliquots of worms were removed into the appropriate medium containing 10 mM NaN3 mounted on a slide and immediately analyzed with a 543 He/Ne laser on a Zeiss 410 confocal microscope, or with a Peltier-cooled Retiga 1300 12-bit CCD camera fitted on to a Leica DMIRE2 autofluorescence/DIC microscope. Images were further analyzed with SIMPLEPCI v5.2 Software (Compix, Inc.). […] No loss of fluorescence was observed when labeling experiments were performed in parallel in the presence of 1 mM NaN3 during the chase period and when worms were incubated in medium without hemin. To account for background autouluorescence in C. elegans, the sensor gain of the CCD camera or the laser was set to subtract any fluorescence obtained from control worms incubated in the presence of 40 μM hemin.

[3] = tested on: C. elegans wild-type N2 strain; assay: Worm culture and growth assay in axenic CeHR/mCeHR liquid medium; assay type: in vivo; settings: for support of worm growth as heme source: in vivo
Protocol: (D) Biphasic response of C. elegans cultured in the presence of increasing amounts of hemin chloride (μM). Equal numbers of synchronized L1 larvae were grown in 24-well plates in mCeHR medium for 9 days and quantified (worms/μl) by microscopy. Each data point represents the mean±SD from three separate experiments performed in triplicate.
(A) Aerobic growth of C. elegans in mCeFIR medium with 20 μM hemin supplemented with either gallium protoporphyrin IX (GaPP) or gallium salts. Synchronized L1 larvae were grown for 9 days in 24-well plates and quantified (worms/μl) by microscopy. Each data point represents the mean from a single experiment, and each experiment was performed in triplicate. Inset depicts the GaPP analysis at lower concentrations for clarity.
(B) Effect of heme on the cytotoxicity of GaPP. Synchronized L1 larvae were inoculated in 24-well plates containing mCeHR medium with either 0, 2, 4, or 6 μM GaPP and increasing hemin (μM). The number of worms per μl was measured on day 9 and the data are presented as mean±SD.
FIG. 9 depicts worm utilization of heme-iron under iron deprivation. Equal numbers of synchronized L1 larvae were grown in the presence of 4, 20, and 100 μM hemin, either in basal mCeHR medium (set 1), or basal medium lacking exogenous iron (set 2), or as set 2 with 1 μM of the iron chelator ferrozine (set 3), or as set 3 with 486 μM ferrous ammonium sulfate (set 4). These values of ferrozine and iron were empirically determined by performing dose-response experiments and analyzing worm growth. The number of worms per μl was measured on day 9 and the data presented as mean±SD performed in triplicate. P<0.001 between sets 1 and 3.
To qualitatively and quantitatively determine the heme requirement of C. elegans, we assessed growth at various heme concentrations. Equal numbers of L1 larvae were inoculated in CeHR medium with either no cytochrome c and hemin, or with cytochrome c and increasing amounts of hemin (FIG. 4A). The effect of hemin became apparent within 48 hours and by 9 days, the heme-deplete worms were severely growth retarded at the L1/L2 stages. […] However, this stimulatory effect of heme was toxic to worms grown at heme concentrations >750 μM. To quantitatively assess the effect of heme on worms, we counted the number of live worms grown under different concentration of heme using DIC microscopy. […] On the basis of this association between heme and the growth and reproduction of C. elegans, we conclude that the biphasic nature of heme is likely due to the need for heme under heme-deprived conditions to perform essential metabolic functions, and the lethality of heme at high concentrations can be attributed to its cytotoxic activity.
Worm Culture and Growth Assays. Free-living worms were cultured in CeHR axenic liquid medium (Dr. Eric Clegg, Personal Communication). […] CeHR medium was modified (henceforth called mCeHR) to eliminate all sources of exogenously added heme; basal growth medium comprised 20 μM hemin chloride (Frontier Scientific, Logan, Utah) and 150 μM of ferrous ammonium sulfate (Sigma Chemicals). Worm strains were grown in mCeHR medium under aerobic conditions in tissue culture flasks at 20° C. ˜3.7×10^6 worms were routinely obtained after 3.5 to 4 days in a T75 flask with 30 ml basal medium from an initial inoculum of −1.5×10^5 worms. For initial culturing of worms in axenic media, three generations of worms were sequentially bleached (1.1% bleach/0.55 M NaOH) to eliminate any contaminating bacterial carryover from agar plates. In all dose-response experiments, worms were growth synchronized by treating the gravid hermaphrodite worms with bleach to dissolve adult worms. The eggs, resistant to bleach, were liberated from the carcasses and extensively washed with M9 buffer followed by overnight hatching in M9 buffer to synchronize growth. By harvesting at appropriate time intervals, synchronous larval stages and adult staged worms were collected for experimental manipulations. […]

Compound: [N-]=[N+]=[N-] [NaN3, sodium azide]
- lethality to worms (C. elegans [1]; 1 mM NaN3): not lethal

Compound: CCC1=C(C)c2cc3[n-]c(cc4[n-]c(cc5nc(cc1n2)C(C)=C5CC)c(C)c4CCC(=O)O)c(CCC(=O)O)c3C.[Zn+2] [ZnMP, zinc mesoporphyrin IX]
- time to discernable fluorescence signal in embryos (C. elegans [2]): ≤ 130 min

Compound: C=CC1=C(C)c2cc3[n-]c(cc4nc(cc5[n-]c(cc1n2)c(C)c5C=C)C(C)=C4CCC(=O)O)c(CCC(=O)O)c3C.[59Fe+2] [^59Fe-heme]
- radiolabel signal in heme extracted from labeled worms (C. elegans [1]): specific signal
- 59Fe-heme uptake in metabolically inhibited worms (C. elegans [1]; in the presence of NaN3): negligible

Compound: [Cl][59Fe]([Cl])[Cl] [^59Fe]
- radiolabel signal in heme extracted from labeled worms (C. elegans [1]): no radiolabeled signal

Compound: O=S(=O)([O-])c1ccc(-c2nnc(-c3ccccn3)nc2-c2ccc(S(=O)(=O)[O-])cc2)cc1.[Na+].[Na+] [ferrozine]
- effect on diminution in worm growth under iron deprivation ([3]; 1 μM ferrozine, medium lacking exogenous iron): further accentuated

Compound: Cytochrome c: hemoprotein used as heme source for worm growth
- support of worm growth as heme source [3]: sustained worm growth

Compound: hemoglobin: hemoprotein used as heme source for worm growth
- support of worm growth as heme source [3]: sustained worm growth
